What was measured:
Rheb = Rheb (Homo sapiens (Human), UniProt Q15382); assay: Affinity Selection Mass Spectrometry (ASMS); type: binding; settings: affinity (R3/R0) in Affinity Selection Mass Spectrometry assay
In short: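 Affinity selection used 2 μM compound with 60 μM Rheb and 180 μM GDP for 30 min at room temperature. After 10 kDa ultrafiltration washes, protein was denatured in MeCN and bound compound quantified by C18 UPLC with Q-TOF MS, against a no-protein control.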

[1] = target: HA-GST-Rheb (GTP-γ-S loaded) activating mTORC1 (Homo sapiens (Human), UniProt Q15382); assay: Rheb-dependent in vitro kinase assay (Rheb-IVK; LanthaScreen or Western readout); type: biochemical; settings: Rheb-dependent in vitro kinase assay; read-out: IVK IC50
Sequence of HA-GST-Rheb (GTP-γ-S loaded) activating mTORC1 (Q15382 1-181): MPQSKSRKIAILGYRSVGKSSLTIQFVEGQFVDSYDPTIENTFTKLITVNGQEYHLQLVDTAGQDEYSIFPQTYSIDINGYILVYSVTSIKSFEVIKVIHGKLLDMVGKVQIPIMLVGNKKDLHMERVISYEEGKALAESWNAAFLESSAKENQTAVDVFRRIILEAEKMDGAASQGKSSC

Sequence of Rheb (Q15382 1-169 limits assumed): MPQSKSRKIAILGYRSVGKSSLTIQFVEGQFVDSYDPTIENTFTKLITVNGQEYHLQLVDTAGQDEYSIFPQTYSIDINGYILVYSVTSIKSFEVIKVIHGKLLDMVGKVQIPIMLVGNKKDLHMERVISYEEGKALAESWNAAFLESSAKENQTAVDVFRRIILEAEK

In the case of `OCc1cc2c(Cl)cc(Oc3ccccc3)cc2[nH]1` [I-252, (4-chloro-6-phenoxy-1H-indol-2-yl)methanol], the “ASMS (R3/R0)” value (Rheb) is reported as “B (an affinity (R3/R0) between 100% and 20%)” and the IC50 [1] is reported as 10 to 100 µM.
`NCc1cc2c(Oc3ccccc3)cc(Cl)cc2[nH]1` [I-170, (6-chloro-4-phenoxy-1H-indol-2-yl)methanamine] was tested, and the “ASMS (R3/R0)” value (Rheb) was “B (an affinity (R3/R0) between 100% and 20%)” and the IC50 [1] was 10 to 100 µM.
With `Clc1ccc(Sc2cccc3c2ccn3Cc2ccc(-c3nnn[nH]3)cc2)c(Cl)c1` [I-161, 1-(4-(1H-tetrazol-5-yl)benzyl)-4-(2,4-dichlorophenylthio)-1H-indole] the “ASMS (R3/R0)” value (Rheb) was “A (an affinity (R3/R0)>100%)” and the IC50 [1] was < 10 µM.
For `O=C(O)c1cc2c(Oc3ccccc3)cc(Cl)cc2[nH]1` [I-175, 6-chloro-4-phenoxy-1H-indole-2-carboxylic acid], the “ASMS (R3/R0)” value (Rheb) was “B (an affinity (R3/R0) between 100% and 20%)” and the IC50 [1] was 100 to 300 µM.
For `OCc1nc2c(OCC3CC=CC3)c(Cl)c(Cl)cc2[nH]1` [I-377], the “ASMS (R3/R0)” value (Rheb) was “B (an affinity (R3/R0) between 100% and 20%)” and the IC50 [1] was > 100 µM.
`OCc1cc2c(Br)cc(Oc3ccccc3)cc2[nH]1` [I-290, (4-Bromo-6-phenoxy-1H-indol-2-yl)methanol] was tested, and the “ASMS (R3/R0)” value (Rheb) was “B (an affinity (R3/R0) between 100% and 20%)” and the IC50 [1] was 10 to 100 µM.
`CN1CCN(c2cccc(NC(=O)c3cc4c(Sc5ccc(Cl)cc5Cl)cc(Cl)cc4[nH]3)c2)CC1` [I-121, 6-chloro-4-(2,4-dichlorophenylthio)-N-(3-(4-methylpiperazin-1-yl)phenyl)-1H-indole-2-carboxamide] was tested, and the “ASMS (R3/R0)” value (Rheb) was “B (an affinity (R3/R0) between 100% and 20%)” and the IC50 [1] was < 10 µM.
In the case of `O=C(O)c1cc2c(Cl)cc(-c3cc(Cl)cc(Cl)c3)cc2[nH]1` [I-47, 4-chloro-6-(3,5-dichlorophenyl)-1H-indole-2-carboxylic acid], the “ASMS (R3/R0)” value (Rheb) is reported as “B (an affinity (R3/R0) between 100% and 20%)” and the IC50 [1] is reported as 10 to 100 µM.
For `OCCc1cc2c(Oc3ccccc3)c(Cl)ccc2[nH]1` [I-261, 2-(5-chloro-4-phenoxy-1H-indol-2-yl)ethanol], the “ASMS (R3/R0)” value (Rheb) was “C (an affinity (R3/R0)<20%)” and the IC50 [1] was 10 to 100 µM.
In the case of `CN(C)C(=O)c1ccc(Cn2c(-c3nn[nH]n3)cc3c(Br)cc(Sc4ccc(Cl)c(Cl)c4)cc32)cc1` [I-14], the “ASMS (R3/R0)” value (Rheb) is reported as “B (an affinity (R3/R0) between 100% and 20%)” and the IC50 [1] is reported as > 3 µM.
In the case of `Clc1ccc(Cl)c(Oc2cccc3[nH]ccc23)c1` [I-251, 4-(2,5-Dichlorophenoxy)-1H-indole], the “ASMS (R3/R0)” value (Rheb) is reported as “C (an affinity (R3/R0)<20%)” and the IC50 [1] is reported as 10 to 100 µM.
`CN1CCC(CNC(=O)c2cc3c(Sc4ccc(Cl)cc4Cl)cc(Cl)c(Cl)c3[nH]2)CC1` [I-35, 6,7-dichloro-4-(2,4-dichlorophenylthio)-N-((1-methylpiperidin-4-yl)methyl)-1H-indole-2-carboxamide] was tested, and the “ASMS (R3/R0)” value (Rheb) was “A (an affinity (R3/R0)>100%)” and the IC50 [1] was < 10 µM.
With `OCc1nc2cc(Cl)c(SCc3ccc(Cl)cc3Cl)cc2[nH]1` [I-361, (5-chloro-6-(2,4-dichlorobenzylthio)-1H-benzo[d]imidazol-2-yl)methanol] the “ASMS (R3/R0)” value (Rheb) was “B (an affinity (R3/R0) between 100% and 20%)” and the IC50 [1] was 100 to 300 µM.
`Clc1ccc(Sc2cccc3[nH]ccc23)cc1` [I-246, 4-(4-chlorophenylthio)-1H-indole] was tested, and the “ASMS (R3/R0)” value (Rheb) was “C (an affinity (R3/R0)<20%)” and the IC50 [1] was 10 to 100 µM.
In the case of `CN1CCC(N(C)C(=O)c2ccc(Cn3c(C(=O)O)cc4c(Br)cc(Oc5ccccc5)cc43)cc2)C1` (stereo not drawn) [I-46], the “ASMS (R3/R0)” value (Rheb) is reported as “C (an affinity (R3/R0)<20%)” and the IC50 [1] is reported as > 3 µM.
`CC(C)(C)OC(=O)c1ccc(Cn2c(-c3ccncc3)nc3cc(Cl)c(Cl)cc32)cc1` [I-374] was tested, and the “ASMS (R3/R0)” value (Rheb) was “C (an affinity (R3/R0)<20%)” and the IC50 [1] was > 100 µM.
With `OCc1nc2c(OCC3COCC3O)c(Cl)c(Cl)cc2[nH]1` (stereo not drawn) [I-381] the “ASMS (R3/R0)” value (Rheb) was “C (an affinity (R3/R0)<20%)” and the IC50 [1] was > 100 µM.
`OCc1nc2c(OCC3CCCC(O)C3)c(Cl)c(Cl)cc2[nH]1` (stereo not drawn) [I-396, 3-((5,6-dichloro-2-(hydroxymethyl)-1H-benzo[d]imidazol-4-yloxy)methyl)cyclohexanol] was tested, and the “ASMS (R3/R0)” value (Rheb) was “C (an affinity (R3/R0)<20%)” and the IC50 [1] was 10 to 100 µM.
In the case of `CN1CCN(c2ccc(NC(=O)c3cc4c(Sc5ccc(Cl)cc5Cl)cc(Cl)cc4[nH]3)cc2Cl)CC1` [I-111, 6-chloro-N-(3-chloro-4-(4-methylpiperazin-1-yl)phenyl)-4-(2,4-dichlorophenylthio)-1H-indole-2-carboxamide], the “ASMS (R3/R0)” value (Rheb) is reported as “C (an affinity (R3/R0)<20%)” and the IC50 [1] is reported as < 10 µM.
For `CN(C)c1cc(-c2nc3cc(Cl)c(Cl)cc3[nH]2)ccn1` [I-351], the “ASMS (R3/R0)” value (Rheb) was “A (an affinity (R3/R0)>100%)” and the IC50 [1] was > 100 µM.
For `Clc1ccccc1Sc1cccc2[nH]ccc12` [I-244, 4-(2-chlorophenylthio)-1H-indole], the “ASMS (R3/R0)” value (Rheb) was “B (an affinity (R3/R0) between 100% and 20%)” and the IC50 [1] was 10 to 100 µM.
With `Clc1cc2nc(-c3ncco3)n(Cc3ccc(-c4nn[nH]n4)cc3)c2cc1Cl` [I-489, 2-(1-(4-(2H-tetrazol-5-yl)benzyl)-5,6-dichloro-1H-benzo[d]imidazol-2-yl)oxazole] the “ASMS (R3/R0)” value (Rheb) was “C (an affinity (R3/R0)<20%)” and the IC50 [1] was 100 to 300 µM.
`O=C1CCC(CNC(=O)c2cc3c(Sc4ccc(Cl)cc4)cc(Cl)cc3[nH]2)N1` (stereo not drawn) [I-147] was tested, and the “ASMS (R3/R0)” value (Rheb) was “A (an affinity (R3/R0)>100%)” and the IC50 [1] was > 100 µM.
For `CC(=O)N[C@@H]1CCCC[C@@H]1COc1c(Cl)c(Cl)cc2[nH]c(CO)nc12` (racemic) [I-369], the “ASMS (R3/R0)” value (Rheb) was “C (an affinity (R3/R0)<20%)” and the IC50 [1] was 10 to 100 µM.
With `Brc1cc(Oc2ccccc2)cc2[nH]ccc12` [I-239, 4-bromo-6-phenoxy-1H-indole] the “ASMS (R3/R0)” value (Rheb) was “B (an affinity (R3/R0) between 100% and 20%)” and the IC50 [1] was 10 to 100 µM.
For `O=C(O)c1cc2c(Sc3ccc(Cl)cc3Cl)cc(Cl)cc2[nH]1` [I-157, 6-chloro-4-(2,4-dichlorophenylthio)-1H-indole-2-carboxylic acid], the “ASMS (R3/R0)” value (Rheb) was “B (an affinity (R3/R0) between 100% and 20%)” and the IC50 [1] was < 10 µM.
For `COC(=O)c1ccc(-c2nc3cc(Cl)c(Cl)cc3[nH]2)cc1` [I-363, methyl 4-(5,6-dichloro-1H-benzo[d]imidazol-2-yl)benzoate], the “ASMS (R3/R0)” value (Rheb) was “A (an affinity (R3/R0)>100%)” and the IC50 [1] was 10 to 100 µM.
In the case of `OCc1cc2c(Oc3ccccc3)c(Cl)c(Cl)cc2[nH]1` [I-250, (5,6-Dichloro-4-phenoxy-1H-indol-2-yl)methanol], the “ASMS (R3/R0)” value (Rheb) is reported as “B (an affinity (R3/R0) between 100% and 20%)” and the IC50 [1] is reported as 10 to 100 µM.
In the case of `CC(C)(C)OC(=O)NCc1nc2cc(OCc3ccc(Cl)cc3)c(Cl)c(Cl)c2[nH]1` [I-350], the “ASMS (R3/R0)” value (Rheb) is reported as “B (an affinity (R3/R0) between 100% and 20%)” and the IC50 [1] is reported as > 100 µM.
In the case of `O=C(O)c1cc2c(-c3ccccc3)cc(Cl)cc2[nH]1` [I-54, 6-chloro-4-phenyl-1H-indole-2-carboxylic acid], the “ASMS (R3/R0)” value (Rheb) is reported as “C (an affinity (R3/R0)<20%)” and the IC50 [1] is reported as 100 to 300 µM.
`OCc1cc2c(Sc3ccc(Cl)cc3)cc(Cl)cc2[nH]1` [I-187, (6-chloro-4-(4-chlorophenylthio)-1H-indol-2-yl)methanol] was tested, and the “ASMS (R3/R0)” value (Rheb) was “B (an affinity (R3/R0) between 100% and 20%)” and the IC50 [1] was < 10 µM.
For `CC(C)(C)OC(=O)c1ccc(Cn2c(C(=O)O)cc3c(Br)cc(Oc4ccccc4)cc32)cc1` [I-167, 4-bromo-1-(4-(tert-butoxycarbonyl)benzyl)-6-phenoxy-1H-indole-2-carboxylic acid], the “ASMS (R3/R0)” value (Rheb) was “B (an affinity (R3/R0) between 100% and 20%)” and the IC50 [1] was < 10 µM.
In the case of `OCc1cc2c(Sc3ccc(F)c(F)c3)cc(Cl)cc2[nH]1` [I-152, (6-chloro-4-(3,4-difluorophenylthio)-1H-indol-2-yl)methanol], the “ASMS (R3/R0)” value (Rheb) is reported as “B (an affinity (R3/R0) between 100% and 20%)” and the IC50 [1] is reported as 10 to 100 µM.
`O=C(O)c1ccc(Cn2ccc3c(Br)cc(Oc4ccccc4)cc32)cc1` [I-164, 4-((4-bromo-6-phenoxy-1H-indol-1-yl)methyl)benzoic acid] was tested, and the “ASMS (R3/R0)” value (Rheb) was “B (an affinity (R3/R0) between 100% and 20%)” and the IC50 [1] was 10 to 100 µM.
With `Clc1ccc(Oc2cccc3[nH]ccc23)cc1` [I-283, 4-(4-chlorophenoxy)-1H-indole] the “ASMS (R3/R0)” value (Rheb) was “C (an affinity (R3/R0)<20%)” and the IC50 [1] was 100 to 300 µM.
With `O=C(NCCn1ccc2ccccc21)c1cc2c(Sc3ccc(Cl)cc3)cc(Cl)cc2[nH]1` [I-131] the “ASMS (R3/R0)” value (Rheb) was “B (an affinity (R3/R0) between 100% and 20%)” and the IC50 [1] was > 100 µM.
`CN1CCC(CNC(=O)c2nc3cc(OCc4ccc(Cl)cc4)c(Cl)c(Cl)c3[nH]2)CC1` [I-337, 6,7-dichloro-5-(4-chlorobenzyloxy)-N-((1-methylpiperidin-4-yl)methyl)-1H-benzo[d]imidazole-2-carboxamide] was tested, and the “ASMS (R3/R0)” value (Rheb) was “B (an affinity (R3/R0) between 100% and 20%)” and the IC50 [1] was > 3 µM.
For `O=C(O)Cn1c(C(=O)O)cc2c(Oc3cc(Cl)ccc3Cl)cc(Cl)cc21` [I-162, 1-(Carboxymethyl)-6-chloro-4-(2,5-dichlorophenoxy)-1H-indole-2-carboxylic acid], the “ASMS (R3/R0)” value (Rheb) was “B (an affinity (R3/R0) between 100% and 20%)” and the IC50 [1] was 100 to 300 µM.
For `OCc1nc2cc(OCc3ccccc3)c(Cl)cc2n1Cc1ccc(-c2nnn[nH]2)cc1` [I-437, (1-(4-(1H-tetrazol-5-yl)benzyl)-5-(benzyloxy)-6-chloro-1H-benzo[d]imidazol-2-yl)methanol], the “ASMS (R3/R0)” value (Rheb) was “C (an affinity (R3/R0)<20%)” and the IC50 [1] was > 3 µM.
For `O=C(O)c1cc2c(Cl)cc(Sc3ccc(Cl)c(Cl)c3)cc2[nH]1` [I-100, 4-chloro-6-(3,4-dichlorophenylthio)-1H-indole-2-carboxylic acid], the “ASMS (R3/R0)” value (Rheb) was “B (an affinity (R3/R0) between 100% and 20%)” and the IC50 [1] was < 10 µM.
`Clc1c(Br)cc2nc(-c3ccncc3)[nH]c2c1Cl` [I-357] was tested, and the “ASMS (R3/R0)” value (Rheb) was “A (an affinity (R3/R0)>100%)” and the IC50 [1] was > 100 µM.
With `O=C(Nc1ncc[nH]1)c1cc2c(Sc3ccc(Cl)cc3)cc(Cl)cc2[nH]1` [I-63] the “ASMS (R3/R0)” value (Rheb) was “A (an affinity (R3/R0)>100%)” and the IC50 [1] was > 100 µM.

From patent publication US11339144B2 (Navitor Pharmaceuticals, Inc., priority 2017, dated 2022)
